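Growth conditions: 96-well plates. Treatment: test compound, 48 hours, 5 concentrations. Analysis: linear interpolation between bracketing concentrations; unreached endpoints set to highest concentration. TGI: total growth inhibition.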
System: P388/ADR leukemia
Assay: NCI tumour cell line growth inhibition, 48 h

Question: For `O=c1n(CC2CO2)c(=O)n(CC2CO2)c(=O)n1CC1CO1` (stereo unspecified), which TGI is on record?
Answer: 275 µM
